Results reported in US6469055B2, “Compositions and methods for treatment of neurological disorders and neurodegenerative diseases” (Massachusetts Institute of Technology, priority 1996, dated 2002).
“Also recorded” adds a separate entry of the source.

Assays:
secreted APP (APPs) = test: APPs secretion into the media of cultured cortical astrocytes, Western blot; format: cell-based, rat; details: for secretion of soluble APPs: aspirin or resveratrol, nano- or micromolar range, cultured astrocytes or neurons
Method: Astrocytes are isolated from cortices from postnatal rats. […] Media are changed twice weekly.
To detect secreted APP, culture media was collected after drug treatments and phenylmethylsulfonyl fluoride was added to a final concentration of 2 mM. The media samples were then applied to Sephadex PD-10 desalting columns (Pharmacia) and eluted with distilled water. Column eluates were frozen and dried by vacuum centrifugation. The lyophilized proteins were reconstituted in 25 μL water followed by 25 μL of 2X Laemmli gel loading buffer, and boiled for 5 min.
(§1) Assays of PI hydrolysis are conducted as previously reported. Also, measurements of APPs are conducted as previously reported.

cellular cAMP levels = test: cAMP assay in cultured astrocytes; format: cell-based, rat
Method: In brief, after aspirating the medium and rinsing twice with 1 ml ice cold PBS, the cells were scraped in 0.8 ml ice cold ethanol and sonicated. […] After resuspension in 120 μl Tris/EDTA buffer, two duplicate samples of 50 μl each were mixed with the binding protein, [8-^3H] adenosine 3′, 5′-cyclic phosphate tracer and incubated at 2-4° C. for 2 h. A charcoal suspension (100 μl) was added to the samples before centrifugation and 200 μl of the supernatant were removed for. scintillation counting. The amount of cyclic AMP (pmol/mg protein) was estimated by comparing to known standards, and normalized to the amounts of whole cell protein as determined by the bicinchoninic acid assay (Sigma).

[1] = system: glial fibrillary acidic protein (GFAP); test: GFAP protein in cultured astrocytes, Western blot; format: cell-based, rat; details: PG E2 treatment
Method: To detect cell-associated protein (APP or GFAP), astrocytes from 35 mm dishes are scraped in lysis buffer (60 mM Tris/HCl, 4% SDS, 20% glycerol, 1 mM dithiothreitol), ultrasonicated and boiled for 5 min. […] Bromphenol blue (0.1%) is added to each sample and equal amounts of protein (˜75 mg/lane) are loaded on 10% SDS-polyacrylamide gels.
(§2) The amount of media or cell protein loaded for sodium dodecyl sulfate-polyacrylamide gel electrophoresis (10-20% SDS PAGE; Bio-Rad) was normalized for the amount of protein per sample. […] After 2×10 min rinses in TBST, the membranes were incubated in TBST containing an appropriate antibody. Monoclonal antibodies 22C11 and GFAP (both from Boehringer-Mannheim) were used to detect the N-terminus of APP and glial fibrillary acidic protein respectively; antisera R37 and R98 (gifts of Dr. F. Kametani, Tokyo Institute of Psychiatry) were used to detected the C-terminus and KPI motifs of APP respectively; antiserum C8 (gift of Dr. D. Selkoe, Women's Hospital, Harvard Medical School, Cambridge, Mass.) was used to detect the C-terminus of APP.
After an overnight incubation, membranes were rinsed in TBST before being treated for 1h with a peroxidase-linked secondary antibody. After several rinses in TBST, protein bands were visualized on Kodak X-AR films by an enhanced chemiluminescence method (Amersham). […]

APP synthesis = APP synthesis (APP mRNA and holoprotein) in cultured cortical astrocytes; format: cell-based, rat
astrocytes = test: Process formation of cultured astrocytes; format: cell-based, rat
APP mRNA = test: APP mRNA, Northern blot, cultured cortical astrocytes
Method: Pharmacological manipulations are performed in serum-free media on 7-14 DIV confluent astrocytes.
Total RNA from astrocytes grown on 100 mm dishes is extracted by the acid guanidium thiocyanate-phenol-chloroform method. […] In brief, the medium was aspirated and the cells were scraped in 1 mL of TRI Reagent. After incubation for 15 min at room temperature, 0.2 ml chloroform was added, mixed vigorously with TRI Reagent and the mixture was stored for another 15 min at room temperature. After centrifugation at 12,000 g for 15 min, 0.5 ml isopropanol was added to the aqueous phase of the mixture to precipitate RNA. The RNA pellet collected by centrifugation (12,000 g, 15 min at 4° C.) was washed with 70% ethanol. once and solubilized in an appropriate amount of Formazol (Molecular Research Center, Cincinnati, Ohio). […] RNA was blotted onto Hybond polyvinyl membranes by overnight capillary transfer and fixed onto the membranes by UV light illumination. […] Membranes were dried and exposed to Kodak X-ray film for 24-48 h with an Amersham enhancer sheet. The relative amounts of mRNA obtained by hybridization were estimated using densitometric analysis of autoradiographs. The levels of APP mRNA were normalized to the amounts of G3PDH mRNA and expressed as a ratio to the levels of untreated, control cells.

APP holoprotein [2] = test: Cell-associated APP (APP holoprotein), Western blot, cultured cortical astrocytes; details: for effect on cell-associated APP (APP holoprotein): PMA 5 μM or DNF 100 μM; for levels of cellular and amyloidogenic APP holoprotein: aspirin or resveratrol, 1 h, nano- or micromolar range, cultured astrocytes or neurons
Method: Astrocytes are isolated from cortices from postnatal rats. […] In brief, dissected cortices were dissociated by trypsinization and trituration through a flame-polished Pasteur pipette. Cells were plated onto poly-L-lysine coated 35- or 100 mm culture dishes at densities of about 10-25 cells/mm^2. […] Media are changed twice weekly. […] Pharmacological manipulations are performed in serum-free media on 7-14 DIV confluent astrocytes.
To detect cell-associated protein (APP or GFAP), astrocytes from 35 mm dishes are scraped in lysis buffer (60 mM Tris/HCl, 4% SDS, 20% glycerol, 1 mM dithiothreitol), ultrasonicated and boiled for 5 min. The total amount of cell protein per dish, estimated using the bicinchoninic acid assay, is not altered by pharmacological treatments. Bromphenol blue (0.1%) is added to each sample and equal amounts of protein (˜75 mg/lane) are loaded on 10% SDS-polyacrylamide gels.
as §2
After an overnight incubation, membranes were rinsed in TBST before being treated for 1h with a peroxidase-linked secondary antibody. After several rinses in TBST, protein bands were visualized on Kodak X-AR films by an enhanced chemiluminescence method (Amersham). Optical densities of the protein bands were quantitated by laser scanning densitometry (LKB, Bromma, Sweden), and normalized to the densities of those bands generated under control conditions.

APP holoprotein [3] = test: Brain APP holoprotein in rats injected with p-chloroamphetamine (PCA) with or without aspirin; format: in vivo, rat; details: for brain APP holoprotein relative to control levels: rats, injections of aspirin alone
Excerpt: Neuronal injury can stimulate prostaglandin production., and thereby stimulate APP overexpression. We injected rats with para-chloroamphetamine (PCA), a neurotoxin which causes a loss of serotoninergic terminals in the brain.

PI hydrolysis = PI hydrolysis in cultured astrocytes; format: cell-based, rat; details: propranolol 50 μM with NE 50 μM
Method: as §1

[4] = propranolol 50 μM with NE 50 μM

For `CCCCC[C@H](O)/C=C/[C@H]1[C@H](O)CC(=O)[C@@H]1C/C=C\CCCC(=O)O` [PG E2, prostaglandin E2], the “APP secreted in the media” value (secreted APP (APPs); PG E2 1, 10 or 100 μM, 24 h, mAb 22C11, R37 or C8) was “increased”, the “APP holoprotein (~130 kD) in the media” value (secreted APP (APPs); PG E2, 24 h, antisera C8) was “increased amounts” and the “cellular cAMP levels compared to untreated cells” value (cellular cAMP levels; 1 μg PG E2 (so in the source)) was 27 fold. For the same compound, the “cellular cAMP levels compared to untreated cells” value (cellular cAMP levels; 10 μg PG E2 (so in the source)) was 106 fold, the “cellular cAMP levels compared to untreated cells” value (cellular cAMP levels; 100 μg PG E2 (so in the source)) was 227 fold and the cAMP production (cellular cAMP levels; PG E2 0.1 μM) was “did not stimulate”. The “cAMP versus PG E2 concentration” value (cellular cAMP levels; PG E2 1, 10 or 100 μM) was “Concentration-dependent elevations”, the “levels of GFAP” value [1] was “increased” and the “effect on APP synthesis, shorter treatment” value (APP synthesis; PG E2 10 μM, 6 or 12 h) was “did not reliably increase”. For the same compound, the “process formation in astrocytes” value (astrocytes) was “induced”, the “effect on APP mRNA” value (APP mRNA; PG E2 0.1 μM) was “did not significantly alter; also recorded: not 0.1 μM PG E2” and the “astrocytic APP mRNA relative to untreated cells” value (APP mRNA; PG E2 1, 10 or 100 μM, 24 h) was “significantly increased; also recorded: stimulated increases”. The “effect on APP holoprotein” value (APP holoprotein [2]; PG E2 0.1 μM) was “did not significantly alter; also recorded: not 0.1 μM PG E2”, the “cellular APP holoprotein, of untreated control cells” value (APP holoprotein [2]; PG E2 1 μM, 24 h) was 1.4 fold and the “cellular APP holoprotein, of untreated control cells” value (APP holoprotein [2]; PG E2 10 μM, 24 h) was 1.9 fold. For the same compound, the “cellular APP holoprotein, of untreated control cells” value (APP holoprotein [2]; PG E2 100 μM, 24 h) was 2.3 fold, the “effect on APP holoprotein” value (APP holoprotein [2]; PG E2 1, 10 or 100 μM, 24 h) was “stimulated increases” and the “KPI-containing APP isoforms” value (APP holoprotein [2]; PG E2 treatment, antiserum R98) was “increases”.
For `CCCCCCCCCCCCCC(=O)O[C@@H]1[C@@H](C)[C@@]2(O)[C@@H](C=C(CO)C[C@]3(O)C(=O)C(C)=C[C@@H]23)[C@@H]2C(C)(C)[C@]12OC(C)=O` [PMA, phorbol 12-myristate 13-acetate], the “APPs secretion relative to untreated cells” value (secreted APP (APPs); PMA 5 μM or DNF 100 μM, 1 hour, mAb22C11) was “significantly increases”, the “APPs secretion, to that of untreated cells” value (secreted APP (APPs); PMA 5 μM, dexnorfenfluramine 100 μM) was about 3.0 fold and the “effect on APP mRNA” value (APP mRNA; PMA 5 μM or dexnorfenfluramine 100 μM) was “does not increase”. For the same compound, the “effect on cell-associated APP (APP holoprotein)” value (APP holoprotein [2]; 24 h) was “no effect” and the “effect on cell-associated APP (APP holoprotein)” value (APP holoprotein [2]; 24 h, listed as phorbol 12-myristate 13-acetate) was “does not increase”.
In the case of `CCN(CC)CC.Nc1ncnc2c1ncn2[C@@H]1O[C@@H]2COP(O)(=S)O[C@H]2[C@H]1O` (stereo partly drawn) [Sp-cAMP triethylamine], the “cellular APP holoprotein compared to untreated cells” value (APP holoprotein [2]; Sp-cAMP triethylamine 50 μM, 24 h, antiserum R98) is reported as 1.6 fold, the “cellular APP holoprotein compared to untreated cells” value (APP holoprotein [2]; Sp-cAMP triethylamine 100 μM, 24 h, antiserum R98) is reported as 1.9 fold and the “cellular APP holoprotein compared to untreated cells” value (APP holoprotein [2]; Sp-cAMP triethylamine 150 μM, 24 h, antiserum R98) is reported as 2.2 fold. The “effect on astrocytic APP holoprotein” value (APP holoprotein [2]; Sp-cAMP triethylamine in the absence of PG E2) was “sufficient to stimulate increases”.
For `Cc1c(C(=O)c2cccc3ccccc23)c2cccc3c2n1[C@H](CN1CCOCC1)CO3` [Win55212], the “effect on APP synthesis” value (APP synthesis) was “decrease or inhibit”.
With `CC(=O)Oc1ccccc1C(=O)O` [aspirin] the “secretion of soluble APPs” value (secreted APP (APPs); 1 h) was “increase”, the “secretion of soluble APPs” value (secreted APP (APPs); 1 h, listed as Aspirin) was “promotes” and the “APP holoprotein levels versus uninjected control rats / effect on the PCA-induced increase” value (APP holoprotein [3]; rats injected with both aspirin and PCA) was “did not differ; also recorded: attenuated”. For the same compound, the “brain APP holoprotein relative to control levels” value (APP holoprotein [3]) was “significant decrease”, the “brain APP holoprotein relative to control levels” value (APP holoprotein [3]; listed as Aspirin) was “small, but significant decrease” and the “levels of cellular and amyloidogenic APP holoprotein” value (APP holoprotein [2]) was “decreased levels”. For the same compound, the “levels of cellular and amyloidogenic APP holoprotein” value (APP holoprotein [2]; listed as Aspirin) was “decreases”.
For `CC(C)NCC(O)c1ccc(O)c(O)c1` (stereo not drawn) [isoproterenol], the “APP mRNA levels versus untreated cells” value (APP mRNA; 24 h, NE 50 or 100 μM, isoproterenol 50 μM, Northern blot) was “about 1.6 fold”, the “APP mRNA, of untreated cells” value (APP mRNA; NE 50 or 100 μM, isoproterenol 50 μM) was 180% and the “effect on APP mRNA levels above controls” value (APP mRNA; about 24 h, NE 50 or 100 μM, Iso 50 μM, 8Br-cAMP […] μM) was “mimicked”.
In the case of `CN1CCCC1c1cccnc1.O=C(O)C(O)C(O)C(=O)O.O=C(O)C(O)C(O)C(=O)O` (stereo not drawn) [nicotine ditartrate], the “APP secreted in the media” value (secreted APP (APPs); nicotine ditartrate 1, 10 or 100 μM, 1 h) is reported as “decreased” and the “astrocytic APP holoprotein relative to untreated cells” value (APP holoprotein [2]; nicotine ditartrate 1, 10 or 100 μM, 24 h, p<0.05) is reported as “significantly increased”.
In the case of `CC(C)NCC(O)COc1cccc2ccccc12` (stereo not drawn) [propranolol], the “effect on the NE-induced increase in cAMP formation” value (cellular cAMP levels; [4]) is reported as “inhibits”, the “effect on the NE-induced increase in PI hydrolysis” value (PI hydrolysis) is reported as “no effect” and the “effect on APP synthesis” value (APP synthesis) is reported as “decrease or inhibit”. The “effect on the NE- or isoproterenol-stimulated increase in APP mRNA” value (APP mRNA; propranolol 50 μM) was “to baseline levels; also recorded: significantly inhibited; also recorded: abolished”, the “effect on basal APP protein levels” value (APP holoprotein [2]; propranolol 50 μM on its own) was “no significant effect” and the “effect on the NE-stimulated increase in APP holoprotein” value (APP holoprotein [2]; [4]) was “inhibited”.
For `Oc1ccc(C=Cc2cc(O)cc(O)c2)cc1` [resveratrol], the “secretion of soluble APPs” value (secreted APP (APPs); 1 h) was “increase; also recorded: promotes” and the “levels of cellular and amyloidogenic APP holoprotein” value (APP holoprotein [2]) was “decreased levels; also recorded: decreases”.
